# Laboratory results taken from ChEMBL document CHEMBL4229547, “Design, synthesis and biological mechanisms research on 1,2,3-triazole derivatives of Jiyuan Oridonin A” (Bioorg Med Chem, 2018).
# Activity calls are given as the source filed them. The calls are words filed in the database; no cut-off is given here.
# Legend:
# MGC-803 [1] = test: Induction of apoptosis in human MGC803 cells assessed as upregulation of cytochrome c levels in cytoplasm at 1.5 to 6 ug/ml after 48 hrs by Western blot method; type: functional, cell-based
# MGC-803 [2] = test: Disruption of mitochondrial membrane potential in human MGC803 cells at 1.5 to 3 ug/ml after 24 hrs by JC1 staining-based fluorescence microscopic method; type: functional, cell-based
# MGC-803 [3] = test: Antiproliferative activity against human MGC803 cells after 48 hrs by MTT assay; type: functional, cell-based; settings: MGC-803, 48 h
# MGC-803 [4] = test: Induction of apoptosis in human MGC803 cells assessed as early apoptotic cells at 3 ug/ml in presence of N-acetyl cysteine by annexin V-FITC/propidium iodide staining-based flow cytometric method (reference value: 1.3%); type: functional
# MGC-803 [5] = test: Cell cycle arrest in human MGC803 cells assessed as accumulation at S phase at 3 ug/ml after 48 hrs by propidium iodide staining-based flow cytometric method (reference value: 32.5 +/- 2.25%); type: functional
# MGC-803 [6] = test: Cell cycle arrest in human MGC803 cells assessed as accumulation at G0/G1 phase at 3 ug/ml after 48 hrs in presence of N-acetyl cysteine by propidium iodide staining-based flow cytometric method (reference value: 52.5 +/- 3.71%); type: functional
# MGC-803 [7] = test: Induction of apoptosis in human MGC803 cells assessed as increase in cell debris after 24 hrs by inverted microscopic method; type: functional, cell-based
# PC-3 = test: Antiproliferative activity against human PC3 cells after 48 hrs by MTT assay; type: functional, cell-based; settings: PC-3, 48 h
# MGC-803 [8] = test: Cell cycle arrest in human MGC803 cells assessed as accumulation at G2/M phase after 48 hrs by propidium iodide staining-based flow cytometric method; type: functional
# MGC-803 [9] = test: Induction of apoptosis in human MGC803 cells assessed as upregulation of p53 levels at 1.5 to 6 ug/ml after 48 hrs by Western blot method; type: functional, cell-based
# MGC-803 [10] = test: Induction of apoptosis in human MGC803 cells assessed as late apoptotic cells at 3 ug/ml by annexin V-FITC/propidium iodide staining-based flow cytometric method (reference value: 0.1%); type: functional
# MGC-803 [11] = test: Disruption of mitochondrial membrane potential in human MGC803 cells at 1.5 to 3 ug/ml after 24 hrs in presence of N-acetyl cysteine by JC1 staining-based fluorescence microscopic method; type: functional, cell-based
# MGC-803 [12] = test: Cell cycle arrest in human MGC803 cells assessed as accumulation at S phase at 3 ug/ml after 48 hrs in presence of N-acetyl cysteine by propidium iodide staining-based flow cytometric method (reference value: 32.5 +/- 2.25%); type: functional
# MGC-803 [13] = test: Induction of apoptosis in human MGC803 cells assessed as upregulation of p21 levels at 1.5 to 6 ug/ml after 48 hrs by Western blot method; type: functional, cell-based
# MGC-803 [14] = test: Induction of apoptosis in human MGC803 cells assessed as early apoptotic cells at 1.5 ug/ml by annexin V-FITC/propidium iodide staining-based flow cytometric method (reference value: 1.3%); type: functional
# MGC-803 [15] = test: Cell cycle arrest in human MGC803 cells assessed as accumulation at G2/M phase at 1.5 ug/ml after 48 hrs by propidium iodide staining-based flow cytometric method (reference value: 17.2 +/- 1.35%); type: functional
# MGC-803 [16] = test: Antiproliferative activity against human MGC803 cells at 16 to 32 ug/ml after 48 hrs by MTT assay relative to control; type: functional
# ECa-109 cell line = test: Antiproliferative activity against human ECA109 cells after 48 hrs by MTT assay; type: functional, cell-based; settings: ECa-109, 48 h
# MGC-803 [17] = test: Induction of apoptosis in human MGC803 cells assessed as decrease in ratio of Bcl-2/Bax at 1.5 to 6 ug/ml after 48 hrs by Western blot method; type: functional, cell-based
# SMMC-7721 = test: Antiproliferative activity against human SMMC7721 cells after 48 hrs by MTT assay; type: functional, cell-based; settings: SMMC-7721, 48 h
# MGC-803 [18] = test: Cell cycle arrest in human MGC803 cells assessed as accumulation at G2/M phase at 1.5 ug/ml after 48 hrs in presence of N-acetyl cysteine by propidium iodide staining-based flow cytometric method (reference value: 17.2 +/- 1.35%); type: functional
# MCF7 = test: Antiproliferative activity against human MCF7 cells after 48 hrs by MTT assay; type: functional, cell-based; settings: MCF7, 48 h
# MGC-803 [19] = test: Induction of apoptosis in human MGC803 cells assessed as necrotic cells at 1.5 ug/ml in presence of N-acetyl cysteine by annexin V-FITC/propidium iodide staining-based flow cytometric method (reference value: 1%); type: functional
# MGC-803 [20] = test: Cell cycle arrest in human MGC803 cells assessed as accumulation at S phase at 1.5 ug/ml after 48 hrs in presence of N-acetyl cysteine by propidium iodide staining-based flow cytometric method (reference value: 32.5 +/- 2.25%); type: functional
# MGC-803 [21] = test: Induction of reactive oxygen species formation in human MGC803 cells at 3 ug/ml after 3 hrs by DCFH-DA staining-based flow cytometry (reference value: 7.1%); type: functional
# MGC-803 [22] = test: Induction of apoptosis in human MGC803 cells assessed as necrotic cells at 1.5 ug/ml by annexin V-FITC/propidium iodide staining-based flow cytometric method (reference value: 1%); type: functional
# MGC-803 [23] = test: Induction of reactive oxygen species formation in human MGC803 cells at 3 ug/ml after 5 hrs by DCFH-DA staining-based flow cytometry (reference value: 7.1%); type: functional
# MGC-803 [24] = test: Induction of apoptosis in human MGC803 cells assessed as early apoptotic cells at 1.5 ug/ml in presence of N-acetyl cysteine by annexin V-FITC/propidium iodide staining-based flow cytometric method (reference value: 1.3%); type: functional
# HGC-27 = test: Antiproliferative activity against human HGC27 cells after 48 hrs by MTT assay; type: functional, cell-based; settings: HGC-27, 48 h
# EC9706 = test: Antiproliferative activity against human EC9706 cells after 48 hrs by MTT assay; type: functional, cell-based; settings: EC9706, 48 h
# MGC-803 [25] = test: Cell cycle arrest in human MGC803 cells assessed as accumulation at S phase at 1.5 ug/ml after 48 hrs by propidium iodide staining-based flow cytometric method (reference value: 32.5 +/- 2.25%); type: functional
# MGC-803 [26] = test: Induction of apoptosis in human MGC803 cells assessed as late apoptotic cells at 3 ug/ml in presence of N-acetyl cysteine by annexin V-FITC/propidium iodide staining-based flow cytometric method (reference value: 0.1%); type: functional
# MGC-803 [27] = test: Antiproliferative activity against human MGC803 cells at 8 to 16 ug/ml after 48 hrs in presence of N-acetyl cysteine by MTT assay; type: functional, cell-based
# MGC-803 [28] = test: Cell cycle arrest in human MGC803 cells assessed as accumulation at G0/G1 phase at 3 ug/ml after 48 hrs by propidium iodide staining-based flow cytometric method (reference value: 52.5 +/- 3.71%); type: functional
# MGC-803 [29] = test: Induction of apoptosis in human MGC803 cells assessed as late apoptotic cells at 1.5 ug/ml in presence of N-acetyl cysteine by annexin V-FITC/propidium iodide staining-based flow cytometric method (reference value: 0.1%); type: functional
structure (smiles),measurement,setting,value
C=C1C(=O)[C@]23[C@H](O)[C@H]1C[C@H](O)[C@H]2[C@]12CCCC(C)(C)[C@H]1C[C@H]3O[C@@H]2OCCc1cn(Cc2ccc(Cl)cc2)nn1,Activity,MGC-803 [1],Active
same,Activity,MGC-803 [2],Active
same,IC50,MGC-803 [3],2.53 µM
same,Activity,MGC-803 [4],4.6%
same,Activity,MGC-803 [5],29.6%
same,Activity,MGC-803 [6],50.4%
same,Activity,MGC-803 [7],Dose-dependent effect
same,IC50,PC-3,4.02 µM
same,Activity,MGC-803 [8],Dose-dependent effect
same,Activity,MGC-803 [9],Active
same,Activity,MGC-803 [10],1.1%
same,Activity,MGC-803 [11],inactive
same,Activity,MGC-803 [12],33.2%
same,Activity,MGC-803 [13],Active
same,Activity,MGC-803 [14],7.8%
same,Activity,MGC-803 [15],26.7%
same,inhibition (INH),MGC-803 [16],90%
same,IC50,ECa-109 cell line,2.7 µM
same,Activity,MGC-803 [17],Active
same,IC50,SMMC-7721,4.44 µM
same,Activity,MGC-803 [18],16.1%
same,IC50,MCF7,4.76 µM
same,Activity,MGC-803 [19],0.6%
same,Activity,MGC-803 [20],29.1%
same,Activity,MGC-803 [21],13.6%
same,Activity,MGC-803 [22],0.5%
same,Activity,MGC-803 [23],24.8%
same,Activity,MGC-803 [24],4.2%
same,IC50,HGC-27,2.97 µM
same,IC50,EC9706,5.04 µM
same,Activity,MGC-803 [25],29.2%
same,Activity,MGC-803 [26],0%
same,Activity,MGC-803 [27],inactive
same,Activity,MGC-803 [28],30.5%
same,Activity,MGC-803 [29],0.1%
